Data reported in patent US10064865B2, “Composition comprising phosphodiesterase type 5 inhibitor for inhibiting apoptosis of nerve cells” (ARIBIO INC., priority 2012, dated 2018).
Marks after values point to notes of the source that are not given here.

Experiments:
[1] = tested on: neuron apoptosis-operated rats; assay: Example 2 water tank task (water maze); format: in vivo, Sprague-Dawley (SD) rats
Procedure: (§1) Cognitive testing was conducted using the water tank task (J Neurosci Methods. 11:47-60(1984)). On the days 14 and 28 after neuron apoptosis, the rats were given a series of 3 trials, 10 min apart in a large dark-colored tank (150 cm in diameters×50 cm in height) filled with clear water at a temperature of 22.0±1.0° C. A 15×30 cm submerged platform (2 mm below water surface) was placed in the northwest quadrant of the pool. The release point was always the southern end of the pool. The rats were lowered into the pool facing the wall and were released. The swim paths of the rats for each trials were recorded with a computer interfaced camera tracking system (Smart junior, PanLab, Spain), and the distances (m) and times (sec) taken to reach the escape platform were measured.
All data were expressed as mean±standard deviation (S.D.) of ten rats. Multiple comparison tests for different dose groups were conducted. Variance homogeneity was examined using the Levene test (Levene A, Clin Otalary, 1981; 6:145-51). […] Statistical analyses were conducted using SPSS for Windows (Release 14K, SPSS Inc., USA; Ludbrook, Clin Exp Pharmacol Physiol, 1997; 24:294-6). In addition, the percent changes as compared with neuron apoptosis control and mirodenafil treated rats were calculated to help the understanding of the efficacy of test substances as follow Equation 6 and 7. Percentage Changes as Compared with Sham Control (%)=[((Data of neuron apoptosis control−Data of sham control rat)/Data of sham control rats)×100] [EQUATION 6] Percentage Changes as Compared with neuron apoptosis Control (%)=[((Data of test material treated rats−Data of neuron apoptosis control rats)/Data of neuron apoptosis control rats)×100] [EQUATION 7]

[2] = tested on: neuron apoptosis-operated rats; assay: Example 1 water tank task (cognitive motor behavior); format: in vivo, Sprague-Dawley (SD) rats
Procedure: as §1, with “11:47-60(1984)).” for “11:47-60(1984)). On the days”
All data were expressed as mean±standard deviation (S.D.) of ten rats. Multiple comparison tests for different dose groups were conducted. Variance homogeneity was examined using the Levene test (Levene A, Clin Otalary, 1981; 6:145-51). […] Statistical analyses were conducted using SPSS (Release 14K, SPSS Inc., USA; Ludbrook, Clin Exp Pharmacol Physiol, 1997; 24:294-6). In addition, the percent changes between neuron apoptosis control and mirodenafil treated rats were calculated to help the understanding of the efficacy of test material as follow equation 3. Percentage changes as compared with neuron apoptosis control (%)=[((Data of mirodenafil treated groups−Data of neuron apoptosis control)/Data of neuron apoptosis control)×100] [EQUATION 3]

[3] = 1 mg/kg from 24 hrs after surgery
[4] = 1 mg/kg from 72 hrs after surgery
[5] = 1 mg/kg from 168 hrs after surgery
[6] = 0.5 mg/kg s.c. once a day, at 14 days, Mean of trials
[7] = 0.5 mg/kg s.c. once a day, at 14 days, trial 1
[8] = 0.5 mg/kg s.c. once a day, at 14 days, trial 2
[9] = 0.5 mg/kg s.c. once a day, at 14 days, trial 3
[10] = 0.5 mg/kg s.c. once a day, at 28 days, Mean of trials
[11] = 0.5 mg/kg s.c. once a day, at 28 days, trial 1
[12] = 0.5 mg/kg s.c. once a day, at 28 days, trial 2
[13] = 0.5 mg/kg s.c. once a day, at 28 days, trial 3
[14] = 1 mg/kg s.c. once a day, at 14 days, Mean of trials
[15] = 1 mg/kg s.c. once a day, at 14 days, trial 1
[16] = 1 mg/kg s.c. once a day, at 14 days, trial 2
[17] = 1 mg/kg s.c. once a day, at 14 days, trial 3
[18] = 1 mg/kg s.c. once a day, at 28 days, Mean of trials
[19] = 1 mg/kg s.c. once a day, at 28 days, trial 1
[20] = 1 mg/kg s.c. once a day, at 28 days, trial 2
[21] = 1 mg/kg s.c. once a day, at 28 days, trial 3
[22] = 2 mg/kg s.c. once a day, at 14 days, Mean of trials
[23] = 2 mg/kg s.c. once a day, at 14 days, trial 1
[24] = 2 mg/kg s.c. once a day, at 14 days, trial 2
[25] = 2 mg/kg s.c. once a day, at 14 days, trial 3
[26] = 2 mg/kg s.c. once a day, at 28 days, Mean of trials
[27] = 2 mg/kg s.c. once a day, at 28 days, trial 1
[28] = 2 mg/kg s.c. once a day, at 28 days, trial 2
[29] = 2 mg/kg s.c. once a day, at 28 days, trial 3

In the case of `CCCOc1ccc(S(=O)(=O)N2CCN(CCO)CC2)cc1-c1nc2c(CCC)cn(CC)c2c(=O)[nH]1` [Mirodenafil, mirodenafil], the “mean distances to reach the escape platform at 28 days, change as compared with neuron apoptosis control” value [1, 3] is reported as −26.45%, the “mean time to reach the escape platform at 28 days, change as compared with neuron apoptosis control” value [1, 3] is reported as −24.49% and the “mean distances to reach the escape platform at 28 days, change as compared with neuron apoptosis control” value [1, 4] is reported as −16.05%. The “mean time to reach the escape platform at 28 days, change as compared with neuron apoptosis control” value [1, 4] was −17.33%, the “mean distances to reach the escape platform at 28 days, change as compared with neuron apoptosis control” value [1, 5] was −6.42% and the “mean time to reach the escape platform at 28 days, change as compared with neuron apoptosis control” value [1, 5] was −5.36%. The “The distance to reach the escape platform” value (shortened to “The distance”) [2, 6] was 13.36 ± 0.81^a m, the “The time to reach the escape platform” value [2, 6] was 119.6 ± 9.53^ad sec and the “The distance” value [2, 7] was 15.89 ± 1.14 m. The “The time to reach the escape platform” value [2, 7] was 149.8 ± 11.05^a sec, the “The distance” value [2, 8] was 13.35 ± 1.02^ad m and the “The time to reach the escape platform” value [2, 8] was 118.0 ± 10.38^ad sec. For the same molecule, the “The distance” value [2, 9] was 10.83 ± 0.85^a m, the “The time to reach the escape platform” value [2, 9] was 91.0 ± 11.49^ac sec and the “The distance” value [2, 10] was 11.38 ± 0.76^ac m. For the same molecule, the “The time to reach the escape platform” value [2, 10] was 92.1 ± 9.98^ac sec, the “The distance” value [2, 11] was 13.24 ± 0.83^ad m and the “The time to reach the escape platform” value [2, 11] was 113.7 ± 9.57^ac sec. The “The distance” value [2, 12] was 11.22 ± 1.08^ad m, the “The time to reach the escape platform” value [2, 12] was 88.5 ± 12.48^ac sec and the “The distance” value [2, 13] was 9.68 ± 0.75^ef m. The “The time to reach the escape platform” value [2, 13] was 74.1 ± 10.58^ac sec, the “distances to reach the escape platform, change as compared with neuron apoptosis control” value ([2]; 0.5 mg/kg, trial 1 of 28 days) was −9.80% and the “time to reach the escape platform, change as compared with neuron apoptosis control” value ([2]; 0.5 mg/kg, trial 1 of 28 days) was −11.45%. For the same molecule, the “distances to reach the escape platform, change as compared with neuron apoptosis control” value ([2]; 0.5 mg/kg, trial 2 of 14 days) was −7.93%, the “time to reach the escape platform, change as compared with neuron apoptosis control” value ([2]; 0.5 mg/kg, trial 2 of 14 days) was −10.47% and the “distances to reach the escape platform, change as compared with neuron apoptosis control” value ([2]; 0.5 mg/kg, trial 2 of 28 days) was −14.02%. For the same molecule, the “time to reach the escape platform, change as compared with neuron apoptosis control” value ([2]; 0.5 mg/kg, trial 2 of 28 days) was −22.23%, the “distances to reach the escape platform, change as compared with neuron apoptosis control” value ([2]; 0.5 mg/kg, trial 3 of 14 days) was −9.42% and the “time to reach the escape platform, change as compared with neuron apoptosis control” value ([2]; 0.5 mg/kg, trial 3 of 14 days) was −18.37%. For the same molecule, the “distances to reach the escape platform, change as compared with neuron apoptosis control” value ([2]; 0.5 mg/kg, trial 3 of 28 days) was −17.56%, the “time to reach the escape platform, change as compared with neuron apoptosis control” value ([2]; 0.5 mg/kg, trial 3 of 28 days) was −29.16% and the “The distance” value [2, 14] was 12.83 ± 1.29^ac m. For the same molecule, the “The time to reach the escape platform” value [2, 14] was 116.7 ± 6.30^ac sec, the “The distance” value [2, 15] was 15.93 ± 1.21 m and the “The time to reach the escape platform” value [2, 15] was 150.9 ± 9.00^a sec. For the same molecule, the “The distance” value [2, 16] was 12.89 ± 1.61^ac m, the “The time to reach the escape platform” value [2, 16] was 115.3 ± 8.19^ac sec and the “The distance” value [2, 17] was 9.66 ± 1.42^ac m. The “The time to reach the escape platform” value [2, 17] was 83.9 ± 10.10^ac sec, the “The distance” value [2, 18] was 9.39 ± 1.33^ac m and the “The time to reach the escape platform” value [2, 18] was 81.0 ± 8.68^ac sec. The “The distance” value [2, 19] was 12.65 ± 1.24^ac m, the “The time to reach the escape platform” value [2, 19] was 106.6 ± 10.52^bc sec and the “The distance” value [2, 20] was 9.33 ± 2.17^ac m. The “The time to reach the escape platform” value [2, 20] was 78.4 ± 13.55^ac sec, the “The distance” value [2, 21] was 6.19 ± 1.93^ef m and the “The time to reach the escape platform” value [2, 21] was 58.1 ± 9.22^ac sec. The “distances to reach the escape platform, change as compared with neuron apoptosis control” value ([2]; 1 mg/kg, trial 1 of 28 days) was −13.80%, the “time to reach the escape platform, change as compared with neuron apoptosis control” value ([2]; 1 mg/kg, trial 1 of 28 days) was −16.98% and the “distances to reach the escape platform, change as compared with neuron apoptosis control” value ([2]; 1 mg/kg, trial 2 of 14 days) was −11.07%. The “time to reach the escape platform, change as compared with neuron apoptosis control” value ([2]; 1 mg/kg, trial 2 of 14 days) was −12.52%, the “time to reach the escape platform, change as compared with neuron apoptosis control” value ([2]; 1 mg/kg, trial 2 of 28 days) was −31.11% and the “distances to reach the escape platform, change as compared with neuron apoptosis control” value ([2]; 1 mg/kg, trial 3 of 14 days) was −19.20%. For the same molecule, the “time to reach the escape platform, change as compared with neuron apoptosis control” value ([2]; 1 mg/kg, trial 3 of 14 days) was −24.82%, the “distances to reach the escape platform, change as compared with neuron apoptosis control” value ([2]; 1 mg/kg, trial 3 of 28 days) was −47.33% and the “time to reach the escape platform, change as compared with neuron apoptosis control” value ([2]; 1 mg/kg, trial 3 of 28 days) was −44.46%. The “The distance” value [2, 22] was 12.79 ± 0.64^ac m, the “The time to reach the escape platform” value [2, 22] was 116.6 ± 10.88^ac sec and the “The distance” value [2, 23] was 16.18 ± 1.49 m. For the same molecule, the “The time to reach the escape platform” value [2, 23] was 151.2 ± 10.59^a sec, the “The distance” value [2, 24] was 12.68 ± 0.82^ac m and the “The time to reach the escape platform” value [2, 24] was 115.9 ± 12.51^ac sec. The “The distance” value [2, 25] was 9.52 ± 1.27^ac m, the “The time to reach the escape platform” value [2, 25] was 82.7 ± 15.17^ac sec and the “The distance” value [2, 26] was 9.46 ± 1.25^ac m. For the same molecule, the “The time to reach the escape platform” value [2, 26] was 80.6 ± 6.63^ac sec, the “The distance” value [2, 27] was 12.62 ± 1.21^ac m and the “The time to reach the escape platform” value [2, 27] was 106.5 ± 9.79^bc sec. For the same molecule, the “The distance” value [2, 28] was 9.18 ± 1.46^ac m, the “The time to reach the escape platform” value [2, 28] was 78.2 ± 8.19^ac sec and the “The distance” value [2, 29] was 6.56 ± 1.85^ef m. For the same molecule, the “The time to reach the escape platform” value [2, 29] was 57.2 ± 6.43^ac sec, the “distances to reach the escape platform, change as compared with neuron apoptosis control” value ([2]; 2 mg/kg, trial 1 of 28 days) was −14.01% and the “time to reach the escape platform, change as compared with neuron apoptosis control” value ([2]; 2 mg/kg, trial 1 of 28 days) was −17.06%. The “distances to reach the escape platform, change as compared with neuron apoptosis control” value ([2]; 2 mg/kg, trial 2 of 14 days) was −12.54%, the “time to reach the escape platform, change as compared with neuron apoptosis control” value ([2]; 2 mg/kg, trial 2 of 14 days) was −12.06% and the “distances to reach the escape platform, change as compared with neuron apoptosis control” value ([2]; 2 mg/kg, trial 2 of 28 days) was −29.65%. For the same molecule, the “time to reach the escape platform, change as compared with neuron apoptosis control” value ([2]; 2 mg/kg, trial 2 of 28 days) was −31.28%, the “distances to reach the escape platform, change as compared with neuron apoptosis control” value ([2]; 2 mg/kg, trial 3 of 14 days) was −20.37% and the “time to reach the escape platform, change as compared with neuron apoptosis control” value ([2]; 2 mg/kg, trial 3 of 14 days) was −25.90%. For the same molecule, the “distances to reach the escape platform, change as compared with neuron apoptosis control” value ([2]; 2 mg/kg, trial 3 of 28 days) was −44.14% and the “time to reach the escape platform, change as compared with neuron apoptosis control” value ([2]; 2 mg/kg, trial 3 of 28 days) was −45.32%.
